The structures appear in SMILES notation. Bounds are passed on as bounds.

Test [1] has as its target T1, GLP1R (Homo sapiens, UniProt P43220). Put plainly: GLP1R cAMP assay, CHO cells stably expressing human GLP-1R. It is filed as cell-based. The settings on record: CHO cells stably expressing GLP-1R, read-out: CHO cAMP stable EC50. As for the experimental part:
GLP-1R-mediated agonist activity was determined with a cell-based functional assay utilizing an HTRF (Homogeneous Time-Resolved Fluorescence) cAMP detection kit (cAMP Dynamic 2 Assay Kit; CisBio cat #62AM4PEC) that measures cAMP levels in the cell. The method is a competitive immunoassay between native cAMP produced by the cells and exogenous cAMP labeled with the dye d2. The tracer binding is visualized by a mAb anti-cAMP labeled with Cryptate. The specific signal (i.e., energy transfer) is inversely proportional to the concentration of cAMP in either standard or experimental sample.
Varying concentrations of each compound to be tested (in DMSO) were diluted in DMSO to obtain 200× compound working solution first and then 50 nl compounds were added to a white 384-well assay plate (Greiner 784075) with ECHO. The final DMSO concentration was 0.5%. The compound concentration range may be adjusted at any time.
Cells were removed from cryopreservation, re-suspended in 5 mL of Dulbecco's Phosphate Buffered Saline (DPBS-Sigma Cat # D8537) and centrifuged at 900 g for 5 min at 22° C. The cell pellet was then re-suspended in 1 mL of assay buffer [DPBS with 500 μM IBMX (Sigma #15879) and 0.1% BSA (Sigma # A1933). IBMX and BSA were freshly added on the day of assay]. A 10 μL sample of the cell suspension was counted on an Invitrogen Countess II to determine cell viability and cell count per mL. The remaining cell suspension was then adjusted with assay buffer to deliver 1000 viable cells per well using a Matrix Combi Multidrop reagent dispenser. 10 μL cell suspensions were added to each well of the assay plate which already contains compound. The plate was sealed and incubated at 37° C. with 5% CO2 for 30 minutes.
Following the 30 minute incubation, 5 μL of labeled d2 cAMP and 5 μL of anti-cAMP antibody (both diluted 1:20 in cell lysis buffer; as described in the manufacturer's assay protocol) were added to each well of the assay plate. The plates w ere then incubated at room temperature and after 60 minutes, changes in the HTRF signal were read with an Envision multi-label plate reader using excitation of 330 nm and emissions of 615 and 665 nm. Raw data were converted to nM cAMP by interpolation from a cAMP standard curve (as described in the manufacturer's assay protocol) and the percent effect was determined relative to a saturating concentration of the full agonist GLP-17-37 (10 nM) included on each plate. EC50 determinations were made from agonist dose-response curves analyzed with a curve fitting program using a 4-parameter logistic dose response equation. […]

Test [2] has as its target T1, GLP1R. Kind of test: GLP1R cAMP HTRF assay, HEK293/GLP-1R/CRE/Luc (HEK293T cells). Type of test: cell-based. The settings on record: read-out: EC50. The method in brief:
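cAMP accumulation via HTRF after 30 min, 37 °C exposure of 1000 receptor-expressing cells/well to compound (0.5% DMSO final) in IBMX (500 μM)/0.1% BSA DPBS.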

T1 sequence (P43220 24-463): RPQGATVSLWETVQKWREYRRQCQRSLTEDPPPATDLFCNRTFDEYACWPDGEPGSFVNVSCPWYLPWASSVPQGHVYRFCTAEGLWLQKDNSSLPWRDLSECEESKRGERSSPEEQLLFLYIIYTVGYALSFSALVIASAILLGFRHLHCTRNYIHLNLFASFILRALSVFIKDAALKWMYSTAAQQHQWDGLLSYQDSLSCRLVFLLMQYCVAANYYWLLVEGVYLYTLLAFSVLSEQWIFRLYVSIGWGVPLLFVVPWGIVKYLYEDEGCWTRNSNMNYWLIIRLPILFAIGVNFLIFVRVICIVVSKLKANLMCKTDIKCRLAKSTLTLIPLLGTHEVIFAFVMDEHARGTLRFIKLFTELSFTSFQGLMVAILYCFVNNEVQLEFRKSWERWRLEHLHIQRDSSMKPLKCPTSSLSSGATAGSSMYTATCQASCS

For `O=C(O)c1ccc2nc(CN3CCC(c4ccnc(OCc5ccc(Cl)cc5F)n4)CC3)n(C[C@@H]3CCO3)c2c1` [Compound 18, (S)-2-((4-(2-((4-chloro-2-fluorobenzyl)oxy)pyrimidin-4-yl)piperidin-1-yl)methyl)-1-(oxetan-2-ylmethyl)-1H-benzo[d]imidazole-6-carboxylic acid], the EC50 is no more than 150 nM in test [1] and no more than 15 nM in test [2]. For `N#Cc1ccc(COc2cccc(C3=CCN(Cc4nc5ccc(C(=O)O)cc5n4C[C@@H]4CCO4)CC3)n2)c(F)c1` [Compound 19, (S)-2-((4-(6-(4-cyano-2-fluorobenzyloxy)pyridin-2-yl)-5,6-dihydropyridin-1(2H)-yl)methyl)-1-(oxetan-2-ylmethyl)-1 h-benzo[d]imidazole-6-carboxylic add] the same measures were no more than 15 nM and no more than 15 nM. For `O=C(O)c1ccc2nc(CN3CCC(c4cncc(OCc5ccc(Cl)cc5F)n4)CC3)n(C[C@@H]3CCO3)c2c1` [Compound 21, (S)-2-((4-(6-(4-chloro-2-fluorobenzyloxy)pyrazin-2-yl)piperidin-1-yl)methyl)-1-(oxetan-2-ylmethyl)-1 h-benzo[d]imidazole-6-carboxylic acid] the same measures were no more than 1000 nM and no more than 15 nM.

Turning to `N#Cc1ccc(COc2cncc(C3CCN(Cc4nc5ccc(C(=O)O)cc5n4C[C@@H]4CCO4)CC3)n2)c(F)c1` [Compound 22, (S)-2-((4-(6-(4-cyano-2-fluorobenzyloxy)pyrazin-2-yl)piperidin-1-yl)methyl)-1-(oxetan-2-ylmethyl)-1 h-benzo[d]imidazole-6-carboxylic acid], the EC50 is no more than 1000 nM in test [1] and no more than 150 nM in test [2]. For `N#Cc1ccc(COc2cncc(C3=CCN(Cc4nc5ccc(C(=O)O)cc5n4C[C@@H]4CCO4)CC3)n2)c(F)c1` [Compound 23, (S)-2-((4-(6-(4-cyano-2-fluorobenzyloxy)pyrazin-2-yl)-5,6-dihydropyridin-1(2H)-yl)methyl)-1-(oxetan-2-ylmethyl)-1 h-benzo[d]imidazole-6-carboxylic acid] the same measures were no more than 1000 nM and no more than 15 nM. The like results for `O=C(O)c1ccc2nc(CN3CC=C(c4cccc(OCc5ccc(Cl)cc5F)c4)CC3)n(C[C@@H]3CCO3)c2c1` [Compound 28, (S)-2-((4-(3-((4-chloro-2-fluorobenzyl)oxy)phenyl)-3,6-dihydropyridin-1(2H)-yl)methyl)-1-(oxetan-2-ylmethyl)-1 h-benzo[d]imidazole-6-carboxylic add] were, in that order, no more than 150 nM and no more than 15 nM.

Consider `O=C(O)c1ccc2nc(CN3CC=C(c4ccc(F)c(OCc5ccc(Cl)cc5F)c4)CC3)n(C[C@@H]3CCO3)c2c1` [Compound 29, (S)-2-((4-(3-((4-chloro-2-fluorobenzyl)oxy)-4-fluorophenyl)-3,6-dihydropyridin-1(2H)-yl)methyl)-1-(oxetan-2-ylmethyl)-1 h-benzo[d]imidazole-6-carboxylic acid], for which the EC50 in test [1] is no more than 150 nM; in test [2] it was no more than 15 nM. The like results for `O=C(O)c1ccc2nc(CN3CC=C(c4cncc(OCc5ccc(Cl)cc5F)n4)CC3)n(C[C@@H]3CCO3)c2c1` [Compound 34, (S)-2-((4-(6-(4-chloro-2-fluorobenzyloxy)pyrazin-2-yl)-5,6-dihydropyridin-1(2H)-yl)methyl)-1-(oxetan-2-ylmethyl)-1 h-benzo[d]imidazole-6-carboxylic acid] were, in that order, no more than 150 nM and no more than 15 nM.

`O=C(O)c1ccc2nc(CN3CC=C(c4ccnc(OCc5ccc(Cl)cc5F)n4)CC3)n(C[C@@H]3CCO3)c2c1` [Compound 35, (S)-2-((4-(2-((4-chloro-2-fluorobenzyl)oxy)pyrimidin-4-yl)-3,6-dihydropyridin-1(2H)-yl)methyl)-1-(oxetan-2-ylmethyl)-1H-benzo[d]imidazole-6-carboxylic add]: the EC50 in test [1] was no more than 150 nM; in test [2] it was no more than 15 nM.

As to `O=C(O)c1ccc2nc(CN3CC=C(c4cccc(OCc5ccc(Cl)cc5F)n4)CC3)n(C[C@@H]3CCO3)c2c1` [Compound 221, (S)-2-((6-((4-chloro-2-fluorobenzyl)oxy)-3′,6′-dihydro-[2,4′-bipyridin]-1′(2′H)-yl)methyl)-1-(oxetan-2-ylmethyl)-1H-benzo[d]imidazole-6-carboxylic acid], the EC50 in test [1] and in test [2] was no more than 15 nM throughout. As for `N#Cc1ccc(COc2nc(C3=CCN(Cc4nc5ccc(C(=O)O)cc5n4C[C@@H]4CCO4)CC3)ccc2F)c(F)c1` [Compound 222, (S)-2-((6-((4-cyano-2-fluorobenzyl)oxy)-5-fluoro-3′,6′-dihydro-[2,4′-bipyridin]-1′(2′H)-yl)methyl)-1-(oxetan-2-ylmethyl)-1H-benzo[d]imidazole-6-carboxylic acid], the EC50 in test [1] and in test [2] was no more than 15 nM in each case. `O=C(O)c1ccc2nc(CN3CC=C(c4cccc(OCc5ccc(Cl)cc5F)c4)CC3)n(C[C@@H]3CCO3)c2n1` [Compound 224, (S)-2-((4-(3-((4-chloro-2-fluorobenzyl)oxy)phenyl)-3,6-dihydropyridin-1(2H)-yl)methyl)-3-(oxetan-2-ylmethyl)-3H-imidazo[4,5-b]pyridine-5-carboxylic acid]: the EC50 was no more than 150 nM in test [1] and no more than 15 nM in test [2].

`N#Cc1ccc(COc2cccc(C3=CCN(Cc4nc5ccc(C(=O)O)nc5n4C[C@@H]4CCO4)CC3)n2)c(F)c1` [Compound 225, (S)-2-((6-((4-cyano-2-fluorobenzyl)oxy)-3′,6′-dihydro-[2,4′-bipyridin]-1′(2′H)-yl)methyl)-3-(oxetan-2-ylmethyl)-3H-imidazo[4,5-b]pyridine-5-carboxylic add]: the concentration giving a half-maximal response (EC50) in test [1] and in test [2] was no more than 15 nM throughout. On to `O=C(O)c1ccc2nc(CN3CC=C(c4ccc(F)c(OCc5ccc(Cl)cc5F)c4)CC3)n(C[C@@H]3CCO3)c2n1` [Compound 236, (S)-2-((4-(3-((4-chloro-2-fluorobenzyl)oxy)-4-fluorophenyl)-5,6-dihydropyridin-1(2H)-yl)methyl)-3-(oxetan-2-ylmethyl)-3H-imidazo[4,5-b]pyridine-5-carboxylic acid], for which the EC50 is no more than 150 nM in test [1] and no more than 15 nM in test [2]. On to `O=C(O)c1ccc2nc(CN3CC=C(c4cccc(OCc5ccc(Cl)cc5F)c4)CC3)n(C[C@@H]3CCO3)c2c1F` [Compound 237, (S)-2-((4-(3-((4-chloro-2-fluorobenzyl)oxy)phenyl)-3,6-dihydropyridin-1(2H)-yl)methyl)-7-fluoro-1-(oxetan-2-ylmethyl)-1H-benzo[d]imidazole-6-carboxylic acid], for which the EC50 was no more than 150 nM in test [1] and no more than 15 nM in test [2]. `O=C(O)c1ccc2nc(CN3CC=C(c4ccc(F)c(OCc5ccc(Cl)cc5F)c4)CC3)n(C[C@@H]3CCO3)c2c1F` [Compound 238, (S)-2-((4-(3-((4-chloro-2-fluorobenzyl)oxy)-4-fluorophenyl)-3,6-dihydropyridin-1(2H)-yl)methyl)-7-fluoro-1-(oxetan-2-ylmethyl)-1H-benzo[d]imidazole-6-carboxylic acid]: the figures for the half-maximal effective concentration (EC50) in test [1] and in test [2] were no more than 150 nM and no more than 15 nM, respectively.

Consider `O=C(O)c1ccc2nc(CN3CCC(c4cccc(OCc5ccc(Cl)cc5F)c4)CC3)n(C[C@@H]3CCO3)c2c1` [Compound 239, (S)-2-((4-(3-((4-chloro-2-fluorobenzyl)oxy)phenyl)piperidin-1-yl)methyl)-1-(oxetan-2-ylmethyl)-1H-benzo[d]imidazole-6-carboxylic acid], for which the EC50 in test [1] is no more than 150 nM; in test [2], no more than 15 nM. As for `O=C(O)c1ccc2nc(CN3CC=C(c4cccc(OCc5ccc(-c6cccnc6)cc5)n4)CC3)n(C[C@@H]3CCO3)c2c1` [Compound 242, (S)-1-(oxetan-2-ylmethyl)-2-((6-((4-(pyridin-3-yl)benzyl)oxy)-3′,6′-dihydro-[2,4′-bipyridin]-1′(2′H)-yl)methyl)-1H-benzo[d]imidazole-6-carboxylic add], the EC50 in test [2] was no more than 15 nM. With `O=C(O)c1ccc2nc(CN3CC=C(c4cccc(OCc5ccc(-n6ccnc6)cc5)n4)CC3)n(C[C@@H]3CCO3)c2n1` [Compound 245, (S)-2-((4-(6-(4-(1H-imidazol-1-yl)benzyloxy)pyridin-2-yl)-5,6-dihydropyridin-1(2H)-yl)methyl)-3-(oxetan-2-ylmethyl)-3H-imidazo[4,5-b]pyridine-5-carboxylic add], the EC50 in test [1] and in test [2] was no more than 15 nM throughout.

Source of the values: patent US10844049B2, “GLP-1R agonists and uses thereof” (QILU REGOR THERAPEUTICS INC., priority 2018, dated 2020).
